Where two headings read alike, the source gives them in different places.
Target: T1, human beta-3-adrenergic receptor (Homo sapiens, UniProt P13945)
T1 construct: stably express full-length human beta-3-adrenergic receptor; expressed in transfected cells; host or cells: Chinese hamster ovary (CHO) cells
Experiment: cAMP production (beta-3 agonist activity) in CHO cells stably expressing human beta-3-adrenergic receptor, cAMP SPA
Type: cell-based
Conditions: CHO cells expressing full-length human beta-3-adrenergic receptor, 30 min incubation, 10 μM to 3 nM
Method: Chinese hamster ovary (CHO) cells that stably express full-length human beta-3-adrenergic receptor (Granneman et al., Mol. Pharmacol. 44:264-270, 1993) can be used in the following procedure. The cell line is grown in 90% F12 nutrient mixture (HAM), 10% fetal bovine serum, 100 units/ml penicillin G sodium, […] streptomycin sulfate, and 2 mM L-glutamine at 37° C. in 95% air and 5% CO2. The transfected cell line is maintained with G-418 (800 μg/ml).
To test the agonist activity, cells are exposed to test compound and then assayed for cAMP production. CHO cells (100 μl) are plated at 5×10^4 cells/well of a 96-well plate (Costar, Cambridge, Mass.) to achieve 70% confluency the next day. After overnight incubation at 37° C., media is removed and the cells are treated for 30 minutes at 37° C. with KRP buffer (120 mM NaCl, 5.1 mM KCl, 0.6 mM MgSO4.7H2O, 0.8 mM CaCl2.H2O, […] phosphate buffer, […] Hepes pH 7.4)+[…] IBMX ([…]), +1% DMSO, +/− test compounds ([…]). Test compounds are assayed from 10 μM to 3 nM with 3-fold serial dilutions. The control agonist, isoproterenol (10 mM stock in 1.1 mM ascorbate), is assayed by 3-fold dilution beginning at 1 μM. After a 30-minute incubation with the test compounds, the buffer/compound mixture is removed. The cells are lysed and cAMP levels are measured using the cAMP SPA screening assay system (Amersham, Arlington Heights, Ill.). The cAMP values are then plotted to determine the EC50 of each compound tested.

[1] = read-out: Beta-3 Agonistic Activity: Compounds with EC50 values ≦1 μM
[2] = read-out: Beta-3 Agonistic Activity: Compounds with EC50 values >1 μM

T1 sequence (P13945 whole entry): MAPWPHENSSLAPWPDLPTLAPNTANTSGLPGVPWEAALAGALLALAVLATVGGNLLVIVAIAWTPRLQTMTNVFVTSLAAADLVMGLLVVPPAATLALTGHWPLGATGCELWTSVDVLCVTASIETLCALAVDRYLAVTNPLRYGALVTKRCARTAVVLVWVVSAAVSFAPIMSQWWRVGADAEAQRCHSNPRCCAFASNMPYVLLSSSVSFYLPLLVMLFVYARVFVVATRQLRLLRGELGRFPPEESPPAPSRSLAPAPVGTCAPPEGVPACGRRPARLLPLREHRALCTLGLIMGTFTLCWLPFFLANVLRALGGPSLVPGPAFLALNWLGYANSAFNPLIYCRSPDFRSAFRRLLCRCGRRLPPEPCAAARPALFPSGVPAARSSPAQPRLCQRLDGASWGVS

EC50 [1] [nM]	EC50 [2] [nM]	Compound
≤ 1000	–	CC(C)Cc1cc(-c2ccc3c(c2)CC[C@H](CNC[C@H](O)c2cccnc2)O3)ccc1C(=O)O [Example 211, 4-[(2R)-2-({[(2R)-2-hydroxy-2-(3-pyridinyl)ethyl]amino}methyl)-3,4-dihydro-2H-chromen-6-yl]-2-isobutylbenzoic Acid]
≤ 1000	–	O=C(Nc1ccc(F)cc1)NS(=O)(=O)c1cccc(-c2ccc3c(c2)CC[C@H](CNC[C@H](O)c2cccnc2)O3)c1 [Example 333]
≤ 1000	–	COc1cc(OC)nc(NS(=O)(=O)c2ccc(-c3ccc4c(c3)CC[C@H](CNC[C@H](O)c3cccnc3)O4)cc2OC(F)(F)F)n1 [Example 274, N-(4,6-dimethoxy-2-pyrimidinyl)-4-[(2R)-2-({[(2R)-2-hydroxy-2-(3-pyridinyl)ethyl]amino}methyl)-3,4-dihydro-2H-chromen-6-yl]-2-(trifluoromethoxy)benzenesulfonamide]
≤ 1000	–	CC(C)NC(=O)NS(=O)(=O)c1ccc(-c2ccc3c(c2)CC[C@H](CNC[C@H](O)c2cccnc2)O3)cc1 [Example 339]
≤ 1000	–	O=C(O)c1ccc(-c2ccc3c(c2)CC[C@H](CNC[C@H](O)c2cccnc2)O3)cc1Oc1ccccc1 [Example 192, 4-[(2R)-2-({[(2R)-2-hydroxy-2-(3-pyridinyl)ethyl]amino}methyl)-3,4-dihydro-2H-chromen-6-yl]-2-(phenyloxy)benzoic Acid]
≤ 1000	–	O=S(=O)(Nc1cccnc1)c1cccc(-c2ccc3c(c2)CC[C@H](CNC[C@H](O)c2cccnc2)O3)c1 [Example 260]
≤ 1000	–	O=C(Nc1cccc(F)c1)NS(=O)(=O)c1ccc(-c2ccc3c(c2)CC[C@H](CNC[C@H](O)c2cccnc2)O3)cc1 [Example 338]
≤ 1000	–	COc1cccc(C(=O)NS(=O)(=O)c2cccc(-c3ccc4c(c3)CC[C@H](CNC[C@H](O)c3cccnc3)O4)c2)c1 [Example 298]
≤ 1000	–	COc1cc(C)nc(NS(=O)(=O)c2ccc(-c3ccc4c(c3)CC[C@H](CNC[C@H](O)c3cccnc3)O4)cc2OC(F)(F)F)n1 [Example 275, 4-[(2R)-2-({[(2R)-2-hydroxy-2-(3-pyridinyl)ethyl]amino}methyl)-3,4-dihydro-2H-chromen-6-yl]-N-(4-methoxy-6-methyl-2-pyrimidinyl)-2-(trifluoromethoxy)benzenesulfonamide]
≤ 1000	–	COc1cc(C)nc(NS(=O)(=O)c2cc(-c3ccc4c(c3)CC[C@H](CNC[C@H](O)c3cccnc3)O4)ccc2OC)n1 [Example 271]
–	> 1000	O[C@@H](CNC[C@H]1CCc2cc(-c3cccc(Cl)c3)ccc2O1)c1cccnc1 [Example 41]
≤ 1000	–	N#Cc1ccc(NS(=O)(=O)c2cccc(-c3ccc4c(c3)CC[C@H](CNC[C@H](O)c3cccnc3)O4)c2)cc1 [Example 257]
≤ 1000	–	CCOc1cc(-c2ccc3c(c2)CC[C@H](CNC[C@H](O)c2cccnc2)O3)ccc1C(=O)O [Example 185, 2-ethoxy-4-[(2R)-2-({[(2R)-2-hydroxy-2-(3-pyridinyl)ethyl]amino}methyl)-3,4-dihydro-2H-chromen-6-yl]benzoic acid]
–	> 1000	Nc1ccc([C@@H](O)CNC[C@H]2CCc3cc(C(=O)N(CC(=O)O)Cc4ccccn4)ccc3O2)cn1 [Example 365]
–	> 1000	O[C@@H](CNC[C@H]1CCc2cc(-c3ccc(Cl)c(Cl)c3)ccc2O1)c1cccnc1 [Example 39, (1R)-2-({[(2R)-6-(3,4-dichlorophenyl)-3,4-dihydro-2H-chromen-2-yl]methyl}amino)-1-(3-pyridinyl)ethanol]
≤ 1000	–	O=C(NS(=O)(=O)c1cccc(-c2ccc3c(c2)CCC(CNC[C@H](O)c2cccnc2)O3)c1)c1ccc(Cl)cc1 (some centres unmarked) [Example 301]
≤ 1000	–	O=S(=O)(Nc1nc2ccccc2s1)c1ccc(-c2ccc3c(c2)CCC(CNC[C@H](O)c2cccnc2)O3)cc1 (some centres unmarked) [Example 276]
≤ 1000	–	O=S(=O)(Nc1ncccn1)c1ccc(-c2ccc3c(c2)CC[C@@H](CNCC(O)c2cccnc2)O3)cc1 (stereo partly drawn) [Example 249B, 4-[(2S)-2-({[-2-hydroxy-2-(3-pyridinyl)ethyl]amino}methyl)-3,4-dihydro-2H-chromen-6-yl]-N-(2-pyrimidinyl)benzenesulfonamide]
≤ 1000	–	O=C(NS(=O)(=O)c1ccc(-c2ccc3c(c2)CC[C@H](CNC[C@H](O)c2cccnc2)O3)cc1)C1CC1 [Example 285, N-(cyclopropylcarbonyl)-4-[(2R)-2-({[(2R)-2-hydroxy-2-(3-pyridinyl)ethyl]amino}methyl)-3,4-dihydro-2H-chromen-6-yl]benzenesulfonamide]
≤ 1000	–	O=S(=O)(Nc1nccs1)c1ccc(-c2ccc3c(c2)CC[C@H](CNC[C@H](O)c2cccnc2)O3)cc1 [Example 265, 4-[(2R)-2-({[(2R)-2-hydroxy-2-(3-pyridinyl)ethyl]amino}methyl)-3,4-dihydro-2H-chromen-6-yl]-N-(1,3-thiazol-2-yl)benzenesulfonamide]
≤ 1000	–	O=C(O)c1ccc(CCc2ccc3c(c2)CCC(CNC[C@H](O)c2cccnc2)O3)cc1 (stereo in doubt) [Example 215, 4-{2-[(2S)-2-({[(2R)-2-hydroxy-2-(3-pyridinyl)ethyl]amino}methyl)-3,4-dihydro-2H-chromen-6-yl]ethyl}benzoic Acid]
≤ 1000	–	CN(C)CC(=O)NS(=O)(=O)c1cccc(-c2ccc3c(c2)CC[C@H](CNC[C@H](O)c2cccnc2)O3)c1 [Example 304]
≤ 1000	–	Cc1ccc(C(=O)NS(=O)(=O)c2ccc(-c3ccc4c(c3)CC[C@H](CNC[C@H](O)c3cccnc3)O4)cc2)cc1 [Example 296]
≤ 1000	–	Cc1ccc(NC(=O)NS(=O)(=O)c2ccc(-c3ccc4c(c3)CC[C@H](CNC[C@H](O)c3cccnc3)O4)cc2)cc1 [Example 326, 3-((1R)-1-hydroxy-2-{[((2R)-6-{4-[({[(4-methylphenyl)amino]carbonyl}amino)sulfonyl]phenyl}-3,4-dihydro-2H-chromen-2-yl)methyl]amino}ethyl)pyridine]
≤ 1000	–	Nc1ccc([C@@H](O)CNC[C@H]2CCc3cc(C(=O)NCC(=O)O)ccc3O2)cn1 [Example 362, N-{[(2R)-2-({[(2R)-2-(6-amino-3-pyridinyl)-2-hydroxyethyl]amino}methyl)-3,4-dihydro-2H-chromen-6-yl]carbonyl}glycine]
≤ 1000	–	CC(=O)c1ccc(NS(=O)(=O)c2ccc(-c3ccc4c(c3)CC[C@H](CNC[C@H](O)c3cccnc3)O4)cc2)cc1 [Example 264]
≤ 1000	–	O[C@@H](CNC[C@H]1CCc2cc(-c3ccc(-c4ccccc4)cc3)ccc2O1)c1cccnc1 [Example 47]
≤ 1000	–	O=C(Nc1ccc(F)cc1)NS(=O)(=O)c1ccc(-c2ccc3c(c2)CC[C@H](CNC[C@H](O)c2cccnc2)O3)cc1 [Example 327, 3-((1R)-2-{[((2R)-6-{4-[({[(4-fluorophenyl)amino]carbonyl}amino)sulfonyl]phenyl}-3,4-dihydro-2H-chromen-2-yl)methyl]amino}-1-hydroxyethyl)pyridine]
≤ 1000	–	O=C(O)c1ccc(-c2ccc3c(c2)CC[C@H](CNC[C@H](O)c2cccnc2)O3)cc1Oc1ccc(F)cc1 [Example 193, 2-(4-fluorophenoxy)-4-[(2R)-2-({[(2R)-2-hydroxy-2-(3-pyridinyl)ethyl]amino}methyl)-3,4-dihydro-2H-chromen-6-yl]benzoic acid]

Reference: patent US6660752B2, “2,6-Substituted chroman derivatives useful as beta-3 adrenoreceptor agonists” (Bayer Pharmaceuticals Corporation, priority 2001, dated 2003)
